# Results published in US11447472B2, “Polymorophs of 5-aza-4′-thio-2′-deoxycytidine” (Southern Research Institute, priority 2020, dated 2022).
# Like-named read-outs stand apart in the source and are kept apart here.
# Columns and labels:
# [1] = Physical stability of solid forms under accelerated aging conditions (AAC, 25° C./60% RH, two days), HT-XRPD; details: for AAC (form found after storage): Table 4, storage at 25° C., 60% relative humidity; for conversion after storage at 25° C., 60% relative humidity: two days
# Experimental: All solids were exposed to accelerated aging conditions (2 days at 25° C./60% RH) and re-analyzed by HT-XRPD.
# Subsequently, the solids were placed at 25° C./60% RH for two days (AAC) and re-analyzed by XRPD.
# Subsequently, all solids were exposed to accelerated aging conditions for two days (AAC, 25° C./60% RH) and re-analyzed by HT-XRPD.
# Subsequently, all the solids were exposed to accelerated aging conditions (25° C./60% RH) for two days and re-analyzed by HT-XRPD.
# All solids were then exposed to accelerated aging conditions (2 days at 25° C./60% RH) followed by HT-XRPD re-analysis.
# Subsequently, all solids were exposed to accelerated aging conditions (2 days at 25° C./60% RH) and re-analyzed by HT-XRPD.
# Subsequently, all solids were exposed to accelerated aging conditions (25° C./60% RH) for two days and then re-analyzed by HT-XRPD.
# [2] = Dissolution rate (IDR) at pH 1.2, 6.5 and 5.0; assay type: physicochemical
# [3] = in vivo, 2 mg/kg
# in vivo = details: male, SD, rat, 2 mg/kg; for concentration at 0.25 h / concentration at 0.5 h / concentration at 1 h / concentration at 2 h / concentration at 4 h / concentration at 6 h / concentration at 8 h / concentration at 24 h: Concentration (plasma); for AUC(0-inf) / AUC(0-t) / Cmax / MRT inf / half-life / Tmax: po; for AUC(0-inf): AUCInf; for AUC(0-t): AUClast; for MRT inf: MRTInf_obs
compound,measurement,setting,value
"Nc1ncn([C@H]2C[C@H](O)[C@@H](CO)S2)c(=O)n1 [A + D2, 5-Aza-4′-thio-2′-deoxycytidine]",AAC (form found after storage),[1]; sample obtained by ECP from MeOH,A + L
"Nc1ncn([C@H]2C[C@H](O)[C@@H](CO)S2)c(=O)n1 [Form B, 5-Aza-4′-thio-2′-deoxycytidine]",physical stability,[1]; in words,physically unstable
same,"conversion after storage at 25° C., 60% relative humidity",[1]; text,converted to Form A
same,"conversion after storage at 25° C., 60% relative humidity","[1]; text, listed as B",convert to Form A
"Nc1ncn([C@H]2C[C@H](O)[C@@H](CO)S2)c(=O)n1 [Form C2, 5-Aza-4′-thio-2′-deoxycytidine]","conversion after storage at 25° C., 60% relative humidity","[1]; text, listed as C2",convert to Form A
"Nc1ncn([C@H]2C[C@H](O)[C@@H](CO)S2)c(=O)n1 [Form D2, 5-Aza-4′-thio-2′-deoxycytidine]","conversion after storage at 25° C., 60% relative humidity","[1]; text, listed as D2",convert to Form A
"Nc1ncn([C@H]2C[C@H](O)[C@@H](CO)S2)c(=O)n1 [Form E, 5-Aza-4′-thio-2′-deoxycytidine]",AAC (form found after storage),"[1]; sample obtained by ECP from DMA/TBME (80/20, v/v)",A + F
same,"conversion after storage at 25° C., 60% relative humidity",[1]; text,converts to Form A
same,"conversion after storage at 25° C., 60% relative humidity","[1]; text, listed as E",convert to Form A
"Nc1ncn([C@H]2C[C@H](O)[C@@H](CO)S2)c(=O)n1 [Form F, 5-Aza-4′-thio-2′-deoxycytidine]",IDR,"[2]; FaSSIF, pH 6.5",2.7 ± 0.05 mg/mL/Cm^2/min
same,IDR,"[2]; FeSSIF, pH 5.0",6.0 ± 0.70 mg/mL/Cm^2/min
same,IDR,"[2]; SGF, pH 1.2",7.0 ± 1.26 mg/mL/Cm^2/min
same,"Concentration (plasma), individual rat","[3]; male, SD, 0.25 h",394 ng/mL
same,"Concentration (plasma), individual rat","[3]; male, SD, 0.5 h",780 ng/mL
same,"Concentration (plasma), individual rat","[3]; male, SD, 1 h",982 ng/mL
same,"Concentration (plasma), individual rat","[3]; male, SD, 2 h",764 ng/mL
same,"Concentration (plasma), individual rat","[3]; male, SD, 4 h",377 ng/mL
same,"Concentration (plasma), individual rat","[3]; male, SD, 6 h",285 ng/mL
same,"Concentration (plasma), individual rat","[3]; male, SD, 8 h",199 ng/mL
same,"Concentration (plasma), individual rat","[3]; male, SD, 24 h",3.81 ng/mL
same,"AUCInf, individual rat","[3]; male, SD, po",5435 ng·h/mL
same,"AUClast, individual rat","[3]; male, SD, po",5419 ng·h/mL
same,"Cmax, individual rat","[3]; male, SD, po",982 ng/mL
same,"MRTInf_obs, individual rat","[3]; male, SD, po",4.63 h
same,"T1/2, individual rat","[3]; male, SD, po",2.86 h
same,AUC values higher than SM,"[3]; male, SD, rat",about 30%
same,"AUC_%Extrap_obs, Mean","[3]; male, SD, rat",0.402%
same,"AUClast/D, Mean","[3]; male, SD, rat",2900 ng·h/mL per mg/kg
same,Cmax value relative to SM,[3]; rat,about 1.4 times
same,concentration at 0.25 h,in vivo; Mean,310 ng/mL
same,concentration at 0.5 h,in vivo; Mean,768 ng/mL
same,concentration at 1 h,in vivo; Mean,934 ng/mL
same,concentration at 2 h,in vivo; Mean,755 ng/mL
same,concentration at 4 h,in vivo; Mean,457 ng/mL
same,concentration at 6 h,in vivo; Mean,324 ng/mL
same,concentration at 8 h,in vivo; Mean,222 ng/mL
same,concentration at 24 h,in vivo; Mean,5.43 ng/mL
same,concentration at 0.25 h,in vivo; individual rat,225 ng/mL
same,concentration at 0.5 h,in vivo; individual rat,755 ng/mL
same,concentration at 1 h,in vivo; individual rat,886 ng/mL
same,concentration at 2 h,in vivo; individual rat,746 ng/mL
same,concentration at 4 h,in vivo; individual rat,536 ng/mL
same,concentration at 6 h,in vivo; individual rat,362 ng/mL
same,concentration at 8 h,in vivo; individual rat,245 ng/mL
same,concentration at 24 h,in vivo; individual rat,7.04 ng/mL
same,AUC(0-inf),in vivo; Mean,5820 ng·h/mL
same,AUC(0-inf),in vivo; individual rat,6210 ng·h/mL
same,AUC(0-t),in vivo; Mean,5800 ng·h/mL
same,AUC(0-t),in vivo; individual rat,6180 ng·h/mL
same,Cmax,in vivo; Mean,934 ng/mL
same,Cmax,in vivo; individual rat,886 ng/mL
same,MRT inf,in vivo; Mean,4.86 h
same,MRT inf,in vivo; individual rat,5.09 h
same,half-life,"in vivo; T1/2, Mean",3 h
same,half-life,"in vivo; T1/2, individual rat",3.15 h
same,Tmax,in vivo; Mean,1 h
same,Tmax,in vivo; individual rat,1 h
"Nc1ncn([C@H]2C[C@H](O)[C@@H](CO)S2)c(=O)n1 [Form G1, 5-Aza-4′-thio-2′-deoxycytidine]","conversion after storage at 25° C., 60% relative humidity",[1]; text,convert to Form A
same,"conversion after storage at 25° C., 60% relative humidity","[1]; text, listed as G1",convert to Form A
"Nc1ncn([C@H]2C[C@H](O)[C@@H](CO)S2)c(=O)n1 [Form G2, 5-Aza-4′-thio-2′-deoxycytidine]","conversion after storage at 25° C., 60% relative humidity",[1]; text,convert to Form A
same,"conversion after storage at 25° C., 60% relative humidity","[1]; text, listed as G2",convert to Form A
"Nc1ncn([C@H]2C[C@H](O)[C@@H](CO)S2)c(=O)n1 [Form H, 5-Aza-4′-thio-2′-deoxycytidine]",AAC (form found after storage),[1]; sample from the method/solvent of that table row,F + H
same,"conversion after storage at 25° C., 60% relative humidity",[1],convert to Form A
same,conversion of the form,[1]; when obtained from NMP,converted to Form F
same,conversion of the form,[1]; when obtained from other solvents,converted to Form A
"Nc1ncn([C@H]2C[C@H](O)[C@@H](CO)S2)c(=O)n1 [Form I, 5-Aza-4′-thio-2′-deoxycytidine]","conversion after storage at 25° C., 60% relative humidity",[1]; text,converts to Form A
same,"conversion after storage at 25° C., 60% relative humidity","[1]; text, listed as I",convert to Form A
"Nc1ncn([C@H]2C[C@H](O)[C@@H](CO)S2)c(=O)n1 [Form J, 5-Aza-4′-thio-2′-deoxycytidine]","conversion after storage at 25° C., 60% relative humidity",[1]; text,converts to Form A
same,"conversion after storage at 25° C., 60% relative humidity","[1]; text, listed as J",convert to Form A
"Nc1ncn([C@H]2C[C@H](O)[C@@H](CO)S2)c(=O)n1 [Form K, 5-Aza-4′-thio-2′-deoxycytidine]","conversion after storage at 25° C., 60% relative humidity",[1]; text,converted to Form F
same,"conversion after storage at 25° C., 60% relative humidity","[1]; text, listed as K",convert to Form A
